# Article PMC7672424 (Nucleic Acids Research, 2020)
# pIC50: −log10 of the molar value.
# Experiments:
# TTA45 [1] = assay: FRET melting assay, stabilization of TTA45; format: binding, human; details: 0.5 µM TTA45, 10 mM K2HPO4/KH2PO4, 100 mM KCl, pH 7.0
# Experimental: Based on the conventional G-quadruplex ligand design ([46]), ∼400 compounds were selected from Chinese National Compound library of Peking University (PKU-CNCL). These compounds were evaluated for their ability to bind to TTA45 by Fluorescence Resonance Energy Transfer (FRET) assay (Supplementary Tables S1 and S2) ([47]). […] Compounds 21-38 were purchased to study their binding with TTA45 by FRET (Supplementary Table S3). […] page 4: Table S2. Stabilization of TTA45 as determined by FRET assays (continued). Compounds Structures ΔTm/°C Compounds Structures ΔTm/°C 23 10.3 25 14.6 […] OH 24 […] KCl, pH 7.0) was determined by FRET procedure, and Tm/°C were derived by their difference. The concentration of compounds 21-26 were 20 μM , and other compounds were 50 μM. FRET assay was carried out on the Real-Time PCR 3.2 machine (Analytik Jena, Germany). The total reaction volume was 20 μL with 0.5 μM of oligonucleotide labelled with FAM at the 3' end and TAMRA at 5' end in 10 mM K2HPO4/KH2PO4 (pH 7.0) containing 100 mM KCl. […] Then compounds with various concentrations were added into the DNA samples.
# [2] = tested on: FAM-TTA45-Cy5 (DNA, G4) GGGTTAGGGTTAGGGTTAGGGTTAGGGTTAGGGTTAGGGTTAGGG; assay: smFRET population titration; details: 100 mM K+; 10 mM Tris-HCl pH 7.4, 0.01% Tween 20, 1 mM ascorbic acid, 1 mM methylviologen, room temperature; apparent
# [3] = tested on: monomeric G-quadruplexes (TBA, c-KIT1, c-KIT2, c-MYC Pu22, VEGF, TTA), duplex (19AT), single strand (dT30); assay: Fluorescence response of BMPQ-1 to DNA; format: binding; details: 3 μM BMPQ-1, 4 μM other DNAs, λex = 395 nm
# Experimental: (§1) Figure 1. (A) Structure of BMPQ-1. (B) Fluorescence spectra of BMPQ-1 at λex = 395 nm in the absence or presence of dimeric G-quadruplexes (TTA45), monomeric G-quadruplexes (c-KIT1, c-KIT2, c-MYCPu22, TTA, VEGF, TBA), trinucleotide DNA (CGG12), duplex DNA (19AT) and single-stranded DNA (dT30). The concentration of BMPQ-1 was 3 μM. The concentration of TTA45 was 2 μM and DNAs with other structures were 4 μM. (C) Fluorescence spectra of 6 μM BMPQ-1 at λex = 395 nm in the absence or presence of 2 μM telomeric G-quadruplexes. Oligonucleotide samples were prepared in solution with 10 mM K2HPO4/KH2PO4, pH 7.0, 100 mM KCl. (D) Effect of BMPQ-1 on the CD spectra of 10 μM TTA45 in 10 mM Tris-HCl buffer (pH 7.4) containing 100 mM KCl.
# (§2) G-quadruplex forming oligonucleotides were annealed in the buffer (10 mM K2HPO4/KH2PO4 pH 7.0, 100 mM KCl) by heating to 95°C for 5 min, followed by gradual cooling to room temperature. Fluorescence spectra were detected by RF-5301PC spectrofluorophotometer (Shimadzu, Japan) at room temperature. The spectra were recorded with 5 nm excitation and emission slit widths. […] For the fluorescence measurements between BMPQ-1 and different DNA sequences, the final concentrations of multimeric G-quadruplex forming oligonucleotides were 2 μM and other DNA oligonucleotides were 4 μM.
# TBA = assay: CD melting, DNA stabilization; format: binding; details: 5 µM DNA, 20 µM BMPQ-1, 10 mM Tris-HCl, 50 mM KCl, pH 7.4
# Experimental: CD studies were performed on a Chirascan circular dichroism spectrophotometer (Jasco, Easton, MD, USA). A quartz cuvette with a 1 mm path length was used to record the spectra over a wavelength range of 220–320 nm with a 1 nm bandwidth. All the samples were prepared in buffer containing 10 mM Tris–HCl pH 7.4, 100 mM KCl. To ensure the concentrations of G-quadruplex units to be 20 μM, multiple G-quadruplexes forming oligonucleotides with different concentrations were used (TTA (G1) 20 μM, TTA45 (G2) 10 μM, TTA69 (G3) 6.67 μM, TTA93 (G4) 5 μM, TTA117 (G5) 4 μM, TTA141 (G6) 3.33 μM). The DNA samples were heated at 95°C for 5 min and cooled down slowly to room temperature. 20, 40 and 60 μM BMPQ-1 were mixed with DNAs separately. Melting curves were measured at 295 nm and the range of temperature was 4–95°C.
# [4] = tested on: dimeric G-quadruplexes (TTA45); assay: Fluorescence response of BMPQ-1 to DNA; format: binding, human; details: 3 μM BMPQ-1, 2 μM TTA45, λex = 395 nm
# Experimental: as §1, §2
# TTA = details: CD melting; 5 µM DNA, 20 µM compound; 10 mM Tris-HCl, 50 mM KCl, pH 7.4
# Experimental: CD studies were performed on a Chirascan circular dichroism spectrophotometer (Jasco, Easton, MD, USA). A quartz cuvette with a 1 mm path length was used to record the spectra over a wavelength range of 220–320 nm with a 1 nm bandwidth. All the samples were prepared in buffer containing 10 mM Tris–HCl pH 7.4, 100 mM KCl. To ensure the concentrations of G-quadruplex units to be 20 μM, multiple G-quadruplexes forming oligonucleotides with different concentrations were used (TTA (G1) 20 μM, TTA45 (G2) 10 μM, TTA69 (G3) 6.67 μM, TTA93 (G4) 5 μM, TTA117 (G5) 4 μM, TTA141 (G6) 3.33 μM). The DNA samples were heated at 95°C for 5 min and cooled down slowly to room temperature. […] Melting curves were measured at 295 nm and the range of temperature was 4–95°C.
# a Melting temperature (T ) of 5 µM DNA samples with and without 20 µM BMPQ-1 analogs in 10 mM Tris-HCl
# buffer (50 mM KCl, pH 7.4) was determined by circular dichroism spectroscopy, and ΔTm/°C were derived by
# [5] = tested on: TTA57/T5 (DNA, G4) GGGTTAGGGTTAGGGTTAGGGTTATTATTATTATTAGGGTTAGGGTTAGGGTTAGGG; assay: fluorescence titration; details: 100 mM K+ (KCl) plus potassium phosphate; 10 mM K2HPO4/KH2PO4 pH 7.0; 3 µM compound, DNA 0-10 µM; weaker than TTA45
# [6] = tested on: FAM-TTA45-TAMRA (DNA, G4) GGGTTAGGGTTAGGGTTAGGGTTAGGGTTAGGGTTAGGGTTAGGG; assay: FRET melting; details: 100 mM K+ (KCl) plus potassium phosphate; 10 mM K2HPO4/KH2PO4 pH 7.0; 0.5 µM DNA, 20 µM compound
# tumor cell = assay: Tumor cell proliferation (summary statement); format: cell-based; details: summary value, abstract/introduction
# Experimental: The cell growth effect of BMPQ-1 against different cell lines were tested via measuring the quantity of living cells using the Cell Counting Kit-8 (CCK8) (DOJINDO, Japan) according to the instruction. Cells were seeded in a 96-well plate (5 × 10^3 cells/well) and grown for 24 h for attachment. Then the cells were treated with various concentrations of BMPQ-1 and incubated at 37°C with 5% CO2 for 48 h. After incubation, the old medium was discarded followed by adding fresh medium containing 10% FBS in DMEM. Then 100 μl CCK-8 (10% in grow medium) was added into each well, and the cells were further incubated for 1 h. The optical density (OD) was detected at 450 nm by an automated microplate reader (Bio-Rad). The IC50 values were derived from the curves of the mean percentage of survival against the drug concentration. All the experiments were performed in triplicate.
# TTA45 [7] = assay: CD melting, DNA stabilization; format: binding, human; details: 5 µM DNA, 20 µM compound, 10 mM Tris-HCl, 50 mM KCl, pH 7.4
# Excerpt: Compounds Structures IC /µM m
# [8] = tested on: TBA (DNA, G4) GGTTGGTGTGGTTGG; assay: CD melting; details: 50 mM K+; 10 mM Tris-HCl pH 7.4; 5 µM DNA, 20 µM compound
smiles,measurement,setting,value
Cc1ccc(Cn2cc3c(-c4ccc5c(c4)OCO5)nnc-3c3cc4c(cc32)OCO4)cc1 [BMPQ-1],"ΔTm/°C, TTA45 stabilization by FRET (Table S3)",TTA45 [1]; 20 µM compounds,16.09 ± 1.79 °C
same,"ΔTm/°C, stabilization of TTA45 by FRET (Table S2)",TTA45 [1]; compounds 21-26 20 µM,16.1 °C
same,KD,[2],0.527 ± 0.0689 µM
same,fluorescence enhancement,[3],less than 3 fold
same,ΔTm (°C) TBA,TBA,4.7 °C
same,fluorescence increase at 521 nm,[4],10 fold
same,ΔTm (°C) TTA,TTA,8.4 °C
same,binding,[5],yes
same,ΔTm,[6],16.09 ± 1.79 °C
same,pIC50,tumor cell,~6.00
same,ΔTm (°C) TTA45,TTA45 [7],14.6 °C
same,ΔTm,[8],4.7 °C
